Key:
[1] = system: C. difficile (CD) ATCC 43255; assay: Hamster model of CDI, oral administration; type: in vivo, Syrian golden hamsters; details: for Toxins A and B in caecal contents: ORI 100 mg/kg (PEG400) on Day 20 PI, VA 50 mg/kg once daily
[2] = system: C. difficile vegetative cultures and spores; assay: Spiral gradient endpoint analysis MIC; type: cell-based
Description: C. difficile PCR ribotypes 001, 106 and 027 were inoculated onto Columbia blood agar and incubated anaerobically (37° C.) for 10 d. Growth was harvested into sterile saline and alcohol shocked in an equal volume of 100% ethanol for 1 h. Alcohol-shocked spore suspensions were mixed by vortexing and sonicated for 5 minutes at room temperature. C. difficile phase-bright (non-germinated) spores were separated from phase-dark (germinated) spores and cellular debris by density gradient centrifugation (4000 rpm 15 minutes) following layering onto 50% (v/v in phosphate buffered saline) Urografin 370 (Schering, Germany). The density gradient centrifugation step was performed twice. Pellets of purified spores were re-suspended in sterile saline (1 mL per 10 Columbia blood agar plates harvested). Percentage phase-bright spores, phase-dark spores and vegetative cells were recorded using phase-contrast microscopy (×100 magnification).
A spiral plater (WASP2, Don Whitley Scientific, UK) was used to apply a logarithmic antibiotic gradient onto the surface of pre-dried (37° C. 20 minutes) Brazier's agar (pH 7). Agar with logarithmic antimicrobial gradients applied to their surface remained at room temperature for 1 h to allow the antimicrobial agent to adsorb into the agar. C. difficile vegetative cultures and spores (˜10^7 cfu/mL) were inoculated onto the agar surface (FIG. 1) with a sterile cotton swab and incubated anaerobically (37° C., 24 h). D-values were measured (in mm) and converted to MICs (Paton, J. H.1990. Int J Exp Clin Chemother. 9, 31-38).

[3] = system: C. difficile PCR ribotype 027; assay: In vitro triple-stage chemostat human gut model of clindamycin-induced CDI; details: for Decline of cytotoxin titres during instillation: 7 days; for Recrudescence of C. difficile spore germination, proliferation and cytotoxin production: after concentrations declined below limits of detection
Source text: A single isolate of C. difficile PCR ribotype 027 was investigated. This isolate was a clinical strain recovered during an epidemic of CDI at the Maine Medical Centre (Portland, USA) in 2005. It was supplied courtesy of Dr. Rob Owens and ribotyped at the Anaerobe Reference Laboratory (Cardiff, Wales, UK) by Dr Jon Brazier.
The gut model was designed to allow the study of the intestinal microflora in the low pH, carbohydrate-excess conditions of the proximal colon and the carbohydrate-depleted, non-acidic conditions of the distal colon (Macfarlane et al., Microb Ecol 1998; 35: 180-7). Microbiological and physicochemical measurements within the gut model vessels were validated against the intestinal contents of sudden death victims (Macfarlane et al., Microb Ecol 1998; 35: 180-7). Each gut model consists of three fermentation vessels connected in a weir cascade system top-fed with growth medium at a controlled rate (D=0.015 h^−1). Vessels were sparged with oxygen-free nitrogen to ensure anaerobiosis, heated via a water-jacketed system (37° C.) and maintained at specific pH using fermenter controller units (Biosolo 3, Brighton Systems, UK) delivering 0.5 M HCl/NaOH. Vessel 1 (280 mL) was operated at pH 5.5 and high substrate availability, thus reflecting the conditions within the proximal colon, while vessels 2 and 3 (300 mL) were operated at pH 6.2 and 6.8, respectively, with low substrate availability, thus reflecting the conditions within the distal colon. The gut model was primed with faecal slurry ˜10% (w/v) and allowed to equilibrate with respect to bacterial populations for 14 days.
Faecal samples were collected from five healthy elderly (>65 years) volunteers and immediately transported to the laboratory under anaerobic conditions (GasPak, Oxoid, Basingstoke, UK). […] C. difficile-negative faeces were pooled and a coarse-filtered slurry (˜10% w/v) in sterile pre-reduced phosphate-buffered saline was prepared. Vessels of the gut models were filled to approximately two-thirds volume, and the growth medium pumps were started.
Major culturable components of the indigenous gut microflora and C. difficile were enumerated by viable counting (log10 cfu/mL) on selective and non-selective agars as reported previously (Freeman et al., J Antimicrob Chemother 2005; 56: 717-25). Bacterial groups enumerated were: total facultative anaerobes, facultatively anaerobic lactose fermenters, total anaerobes, bifidobacteria, Bacteroides fragilis group, total clostridia, lactobacilli, enterococci, total C. difficile and C. difficile spores. C. difficile cytotoxin production was quantified using a Vero cell cytotoxicity assay as described previously (Freeman et al., J Antimicrob Chemother 2003; 52: 96-102). Cytotoxin titres were expressed in log10 relative units (RU). Only C. difficile total bacterial counts, spore counts and cytotoxin titres were enumerated in vessel 1 of the gut model.
The use of the gut model to evaluate therapeutic interventions for CDI has been described previously (Freeman et al., J Antimicrob Chemother 2007; 60: 83-91; Freeman et al., J Antimicrob Chemother 2005; 56: 717-25). Briefly, following inoculation of each gut model with the faecal slurry, no further interventions were made for 13 days (period A). During period A, bacterial populations were enumerated every 2 days. Next (day 14), vessel 1 of each gut model was inoculated with a single inoculum of ˜10^7 cfu C. difficile PCR ribotype 027 spores (Freeman et al., J Antimicrob Chemother 2003; 52: 96-102), with no further interventions for 7 days (period B). From this point onwards, bacterial populations were enumerated daily.

[4] = system: C. difficile spores (PCR ribotypes 001, 106 and 027); assay: Viability (recovery) of spores after antibiotic exposure, cellulose acetate filtration (Examples 3A, 3B); type: cell-based
Description: The experiments were in general performed by mixing C. difficile spores with an antibiotic, filtering the solution through cellulose acetate filters to collect the spores, applying the spore-containing filters to nutrient agar, and determining the number of spores remaining on the filters after a selected period of time.
Therefore, the initial experiment included dilution of antimicrobial-containing spore suspensions prior to filtration and washing. Reaction volumes were 1 mL for all antimicrobial/control solutions.
1 mL of control (de-ionised water+/−Tween-80) and test (antimicrobial containing) solutions were inoculated with 10 μL C. difficile spores (3 strains; PCR ribotypes 001, 106 and 027). Spore suspensions (time=1 min or 30 min) were transferred to filtration cupules and the appropriate volume of diluent (sterile de-ionised water+/−Tween-80) was added to achieve the dilution factors noted above. Samples were filtered onto cellulose acetate filters and washed with a further 50 mL of the appropriate diluent. Filters were transferred aseptically to Braziers CCEY agar containing 5 mg/L lysozyme and 2% lysed horse blood. This procedure was completed in duplicate. The culture media were incubated in an anaerobic atmosphere at 37° C. for 48 h and the numbers of C. difficile colonies were recorded.
Diluent was first added to filtration cupules. 1 mL reactions were then added to the appropriate diluent (1 min and 30 min after reaction formation) and filtered onto cellulose acetate filters. The filters were washed with 50 mL of the appropriate diluent. The filters were then transferred aseptically to Braziers CCEY agar containing 5 mg/L lysozyme and 2% lysed horse blood. This procedure was completed in duplicate. Culture media were incubated in an anaerobic atmosphere at 37° C. for 48 h and the numbers of C. difficile colonies recorded

[5] = day 2 of instillation (64 mg/L two times daily), vessel 3
[6] = Example 3A: diluent added after reaction solutions, 1 min and 30 min exposure
[7] = Example 3B: diluent added to cupules before reaction solutions, 1 min and 30 min

`CN[C@H](CC(C)C)C(=O)N[C@H]1C(=O)N[C@@H](CC(N)=O)C(=O)N[C@H]2C(=O)N[C@H]3C(=O)N[C@H](C(=O)N[C@H](C(=O)O)c4cc(O)cc(O)c4-c4cc3ccc4O)[C@H](O[C@H]3C[C@](C)(N)[C@@H](O)[C@H](C)O3)c3ccc(c(Cl)c3)Oc3cc2cc(c3O[C@@H]2O[C@H](CO)[C@@H](O)[C@H](O)[C@H]2O[C@H]2C[C@](C)(NCc3ccc(-c4ccc(Cl)cc4)cc3)[C@@H](O)[C@H](C)O2)Oc2ccc(cc2Cl)[C@H]1O` [oritavancin, N-(4-(4-chlorophenyl)benzyl)A82846B] was tested, and the “Survival up to 20 days PI” value ([1]; 100 mg/kg once daily oral from Day 2 for 5 days, formulated in PEG400) was “All the animals treated with ORI survived”, the “CD vegetative and spore cells in caecal content” value ([1]; 20 days PI, formulated in PEG400, LOD 1.47 (TC) and 1.77 (spores) Log 10 CFU/g) was “undetectable” and the “Toxins A and B in caecal contents” value [1] was “undetectable”. The “MICs against C. difficile spores lower than against vegetative cells” value ([2]; Brazier's agar pH 7, 24 h) was 5-13 fold, the “Longer time for cytotoxin titres to decline to undetectable levels than in vancomycin experiment” value [3] was 5 days and the “C. difficile total counts and spore counts” value ([3]; 1 day later (day 3 of instillation) and rest of period E, LOD ~1.22 log10 cfu/mL) was “below the limits of detection”. For the same molecule, the “Time to cytotoxin titres below the limits of detection” value ([3]; after cessation of instillation, period F) was at most 10 days, the “Decline of C. difficile spore counts” value [3, 5] was about 2 log10 cfu/mL and the “Decline of C. difficile total counts” value [3, 5] was about 2 log10 cfu/mL. For the same molecule, the “Decline of cytotoxin titres during instillation” value ([3]; period E) was 3 RU, the “Recrudescence of C. difficile spore germination, proliferation and cytotoxin production” value ([3]; period F) was “No recrudescence” and the “C. difficile isolation after cessation of instillation” value ([3]; period F, remainder of the experiment) was “isolated sporadically at the limits of detection”. The “Recovery of C. difficile spores” value [4, 6] was 0 % of controls and the “Recovery of C. difficile spores” value [4, 7] was 0 % of controls.

With `CN[C@H](CC(C)C)C(=O)N[C@H]1C(=O)N[C@@H](CC(N)=O)C(=O)N[C@H]2C(=O)N[C@H]3C(=O)N[C@H](C(=O)N[C@H](C(=O)O)c4cc(O)cc(O)c4-c4cc3ccc4O)[C@H](O)c3ccc(c(Cl)c3)Oc3cc2cc(c3O[C@@H]2O[C@H](CO)[C@@H](O)[C@H](O)[C@H]2O[C@H]2C[C@](C)(N)[C@H](O)[C@H](C)O2)Oc2ccc(cc2Cl)[C@H]1O` [vancomycin] the “Toxins A and B in caecal contents” value [1] was “High level”, the “MICs for C. difficile vegetative cells versus spores” value ([2]; data not shown) was “did not differ substantially” and the “Time C. difficile remained as spores before recurrent germination, proliferation and cytotoxin production” value ([3]; after cessation of instillation, vessel 2) was 12 days. For the same molecule, the “Time C. difficile remained as spores before recurrent germination, proliferation and cytotoxin production” value ([3]; after cessation of instillation, vessel 3) was 13 days, the “Effect on C. difficile spore counts” value ([3]; during instillation, period E) was “unaffected” and the “Decline of cytotoxin titres during instillation” value ([3]; period E) was 3 RU. The “C. difficile total counts by the end of the experiment” value ([3]; period F) was about 6 login cfu/mL, the “Cytotoxin titres by the end of the experiment” value ([3]; period F) was 5 RU and the “Recrudescence of C. difficile spore germination, proliferation and cytotoxin production” value ([3]; period F) was “Recrudescence”. The “Recovery of C. difficile spores” value [4, 6] was 25-60 % of controls and the “Recovery of C. difficile spores” value [4, 7] was 70-80 % of controls.

— US8629100B2, “Method of inhibiting clostridium difficile by administration of oritavancin” (The Medicines Company, priority 2007, dated 2014)
